Data reported in patent US12059393B2, “Compositions for topical treatment of radiation dermatitis” (Akos Biosciences, Inc, priority 2022, dated 2024).

How the values were obtained:
[1] = tested on: acute radiation-induced dermatitis; assay: Skin redness scoring in mouse radiation dermatitis model; assay type: in vivo, Balb/c mice; set-up: key to Redness score (mean): visual redness score, scale 0 to 3 in 0.5 increments; settings: for Redness score % Change CBD vs. Group 3: vs olive oil only; for Redness score % Change CBD vs. Group 2: vs radiation only
Description: A study was performed on mice to determine the efficacy of topically-dosed CBD in an olive oil vehicle for the treatment of acute radiation-induced dermatitis. Three different CBD dosages were used— 30 mg/mL (3 wt %), 120 mg/mL (12 wt %), and 250 mg/mL (25 wt %).
144 female Balb/c mice with an average starting body weight (±SEM) of 17.96±0.12 grams were randomized into six (6) groups of 24 animals each, as follows:
The control group (Group 1) was not irradiated. The animals in Groups 2-6 were anesthetized via a single intraperitoneal injection of xylazine and ketamine prior to being administered a single dose of 30 Grays (Gy) of radiation directed at a 2 cm×4 cm patch of shaved dorsal skin on Day 0. Radiation was generated by a 160 kVp (15-ma) X-ray source at a focal distance of 10 cm, hardened with a 0.35 mm Cu filtration system at a rate of approximately 3.2 Gy/minute.
Dosing for animals in Groups 3-6 began on Day 0 immediately after radiation. Treatments were administered topically (0.1 mL per animal) daily from Days 0-28.
Starting on Day 8 and continuing every other day thereafter (Days 8-28), each animal was evaluated for skin redness and dermatitis, and photographed for subsequent blinded scoring of dermatitis at the completion of the study. Body weight was taken daily.
Skin redness was scored visually by comparison to a photographic scale, and reported on a scale of 0 to 3 in 0.5 unit increments. The scale is described in the table below:
Data were evaluated using one-way ANOVA with Dunnett's multiple comparisons test to compare all groups to the vehicle control group using GraphPad Prism 8.4.3 (La Jolla, CA Duration of dermatitis data was evaluated using the Chi-square test to compare all groups to the vehicle-control group and radiation only group using SigmaPlot 11.0 (Systat Software, Inc.). Statistical significance was achieved when p<0.05.

[2] = tested on: 3D in vitro skin model containing epidermal keratinocytes and dermal fibroblasts; assay: Gene expression changes (178 genes) in 3D in vitro skin model; assay type: cell-based; settings: for Regulated genes (function): UV exposed tissues, baseline Group K
Description: (§1) A 3D in vitro skin model containing epidermal keratinocytes and dermal fibroblasts was used. Some tissues were irradiated with 200 mJ UVB/cm^2. Test materials were applied topically for 24 hours (after UVB exposure) and an MTT assay was used to check the viability of cells. The following treatment groups were used: • olive oil (no CBD); • CBD in olive oil in concentrations of 30, 60, 120, and 250 mg/mL; • No treatment; and • Triton-X® as positive control.
Next, changes in gene expression for 178 genes were measured in tissues. Statistical significance was determined using unpaired t-test, P<0.05, N=4.

[3] = LDH cytotoxicity assay in 3D in vitro skin model; assay type: cell-based; settings: no UV, topical 24 h
Description: as §1
(§2) Cytotoxicity was assessed with a lactate dehydrogenase (LDH) assay using media collected from the wells of the tissues. Increased LDH activity is an indicator of damaged or dead cells.
(§3) The results are provided in the following Table A, with the untreated group defining 0% cytotoxicity and Triton-X defining 100% cytotoxicity. Lower cytotoxicity is better. * indicates p≤0.05 and ** indicates p≤0.01 statistical significance after performing unpaired t-test.

[4] = tested on: 3D in vitro skin model containing epidermal keratinocytes and dermal fibroblasts; assay: LDH cytotoxicity assay in 3D in vitro skin model; assay type: cell-based; settings: light or radiation study, UV (200 mJ UVB/cm^2), topical 24 h
Description: as §1, §2, §3

[5] = tested on: acute radiation-induced dermatitis; assay: Blinded clinical dermatitis scoring in mouse radiation dermatitis model; assay type: in vivo, Balb/c mice; settings: 150 mg/mL CBD

In the case of C=C(C)[C@@H]1CCC(C)=C[C@H]1c1c(O)cc(CCCCC)cc1O [CBD, 2-[(1R,6R)-6-Isopropenyl-3-methylcyclohex-2-en-1-yl]-5-pentylbenzene-1,3-diol], the “Redness score (mean)” value ([1]; CBD-treated groups condensed (30, 120, 250 mg/mL), Day 8) is reported as 0.81, the “Redness score (mean)” value ([1]; CBD-treated groups condensed, Day 10) is reported as 1.06 and the “Redness score (mean)” value ([1]; CBD-treated groups condensed, Day 12) is reported as 1.07. The “Redness score (mean)” value ([1]; CBD-treated groups condensed, Day 14) was 1.16, the “Redness score (mean)” value ([1]; CBD-treated groups condensed, Day 16) was 1.43 and the “Redness score (mean)” value ([1]; CBD-treated groups condensed, Day 18) was 1.40. The “Redness score (mean)” value ([1]; CBD-treated groups condensed, Day 20) was 1.43, the “Redness score (mean)” value ([1]; CBD-treated groups condensed, Day 22) was 1.50 and the “Redness score (mean)” value ([1]; CBD-treated groups condensed, Day 24) was 1.18. The “Redness score (mean)” value ([1]; CBD-treated groups condensed, Day 26) was 1.04, the “Redness score (mean)” value ([1]; CBD-treated groups condensed, Day 28) was 0.89 and the “Mean redness scores compared against Group 2 (radiation only)” value ([1]; CBD-treated groups considered together, p<0.05) was “statistically significant reduction”. The “Redness scores compared to Group 2” value ([1]; CBD-treated groups, after Day 14) was “consistently lower”, the “Redness scores compared to Group 3 (olive oil only)” value ([1]; CBD-treated groups, all time points) was “consistently lower” and the “Redness score % Change CBD vs. Group 3” value ([1]; Day 8) was −16.13%. For the same molecule, the “Redness score % Change CBD vs. Group 3” value ([1]; Day 10) was −30.61%, the “Redness score % Change CBD vs. Group 3” value ([1]; Day 12) was −32.68% and the “Redness score % Change CBD vs. Group 3” value ([1]; Day 14) was −27.45%. The “Redness score % Change CBD vs. Group 3” value ([1]; Day 16) was −29.93%, the “Redness score % Change CBD vs. Group 3” value ([1]; Day 18) was −21.71% and the “Redness score % Change CBD vs. Group 3” value ([1]; Day 20) was −23.70%. The “Redness score % Change CBD vs. Group 3” value ([1]; Day 22) was −32.08%, the “Redness score % Change CBD vs. Group 3” value ([1]; Day 24) was −25.44% and the “Redness score % Change CBD vs. Group 3” value ([1]; Day 26) was −30.56%. For the same molecule, the “Redness score % Change CBD vs. Group 3” value ([1]; Day 28) was −42.34%, the “Redness score % Change CBD vs. Group 2” value ([1]; Day 8) was 87.50% and the “Redness score % Change CBD vs. Group 2” value ([1]; Day 12) was 3.83%. For the same molecule, the “Redness score % Change CBD vs. Group 2” value ([1]; Day 14) was −3.65%, the “Redness score % Change CBD vs. Group 2” value ([1]; Day 16) was −21.32% and the “Redness score % Change CBD vs. Group 2” value ([1]; Day 18) was −24.73%. The “Redness score % Change CBD vs. Group 2” value ([1]; Day 20) was −25.07%, the “Redness score % Change CBD vs. Group 2” value ([1]; Day 22) was −34.00% and the “Redness score % Change CBD vs. Group 2” value ([1]; Day 24) was −42.28%. The “Redness score % Change CBD vs. Group 2” value ([1]; Day 26) was −45.44%, the “Redness score % Change CBD vs. Group 2” value ([1]; Day 28) was −45.68% and the “Regulated genes (function)” value ([2]; 30 mg/mL CBD in olive oil (Group G)) was “associated with cell renewal, tissue remodeling, anti-apoptotic pathway, and extracellular matrix integrity”. For the same molecule, the “Regulated genes (function)” value ([2]; 120 mg/mL CBD in olive oil (Group I)) was “associated with antioxidant/stress response”, the “Genes with FC of 2 or greater” value ([2]; CBD in olive oil 30-250 mg/mL (Groups B-E), healthy tissues, baseline Group A (olive oil)) was “four” and the cytotoxicity at 24 h, 30 mg/mL ([3]; 30 mg/mL CBD in olive oil, untreated=0%, Triton-X=100%) was 4%. The cytotoxicity at 24 h, 60 mg/mL ([3]; 60 mg/mL CBD in olive oil) was 4%, the cytotoxicity at 24 h, 120 mg/mL ([3]; 120 mg/mL CBD in olive oil) was 5% and the cytotoxicity at 24 h, 250 mg/mL ([3]; 250 mg/mL CBD in olive oil) was 11%. It also gave a cytotoxicity at 30000 µg/mL ([4]; 30 mg/mL CBD in olive oil) of 17%, a cytotoxicity at 60000 µg/mL ([4]; 60 mg/mL CBD in olive oil) of 19% and a cytotoxicity at 120000 µg/mL ([4]; 120 mg/mL CBD in olive oil) of 16%. For the same molecule, the cytotoxicity at 250000 µg/mL ([4]; 250 mg/mL CBD in olive oil) was 16% and the “% Days ≥2” value [5] was 61.22%.
